Tested on: Plasmodium berghei
Experiment: Luciferase/luciferin-expressing antifolate-resistant parasites were used to infect a culture of HepG2 cells that were pre-incubated with compounds. Infected hepatocytes emit light due to the luciferase reaction. Assay results are presented as the percent inhibition of light emission compared to control. […]
Assay type: functional
Conditions: sporozoite; for IC90: read-out: LUCIFERASE INFECTION ASSAY - IC90
[1] = read-out: LUCIFERASE INFECTION ASSAY - IC50

Row | SMILES | IC90 [µM] | IC50 [1] [µM] | other results
1 | CNC(=O)CN(c1cc(OCCOC)c(Cl)cc1Cl)S(=O)(=O)c1ccc(OC)cc1 | 0.87 |  | IC50 (HEPG2TOX_HILL_SLOPE 3.52, HEPG2TOX_R_SQUARED 0.986, PBLUC_HILL_SLOPE 18.4, PBLUC_R_SQUARED 0.669, read-out: LUCIFERASE INFECTION ASSAY - IC50): 0.771 µM
2 | Cn1cccc1C(=O)OCC(=O)NCc1cccs1 | > 10 | > 10 | 
3 | CCOc1ccc(OCC)c(NC(=O)/C=C/c2c(C)nn(-c3ccccc3)c2C)c1 | > 10 | 9.19 | 
4 | CSC1=C(C#N)C(=O)NC(c2ccc(Cl)cc2Cl)S1 (stereo not given) | > 9.96 | > 9.96 | 
5 | C=CCn1c2ccccc2c2ccccc21 | > 15.9 |  | IC50 (FFLUC_HILL_SLOPE 10.4, FFLUC_R_SQUARED 0.117, read-out: LUCIFERASE INFECTION ASSAY - IC50): > 15.9 µM
6 | O/N=C/c1ncc(C(F)(F)F)cc1Sc1ccc(Cl)cc1 | > 9.92 |  | IC50 (FFLUC_HILL_SLOPE 8, FFLUC_R_SQUARED 0.0374, HEPG2TOX_HILL_SLOPE 8.44, HEPG2TOX_R_SQUARED 0.673, PBLUC_HILL_SLOPE 11.8, PBLUC_R_SQUARED 0.204, read-out: LUCIFERASE INFECTION ASSAY - IC50): 9.28 µM
7 | CCOC(=O)c1ccc(N/C=C(\C(C)=O)c2ccc(OC)c(OC)c2)cc1 | > 8.93 | > 8.93 | 
8 | Cc1ccc(-c2nc3cc(Br)cnc3nc2-c2ccc(C)cc2)cc1 | 6.85 |  | IC50 (HEPG2TOX_HILL_SLOPE 1.79, HEPG2TOX_R_SQUARED 0.907, PBLUC_HILL_SLOPE 4.08, PBLUC_R_SQUARED 0.409, read-out: LUCIFERASE INFECTION ASSAY - IC50): 4 µM
9 | CS(=O)(=O)Nc1cccc(-c2cn3c(-c4cccc(OC(F)(F)F)c4)cnc3cn2)c1 | > 7.36 |  | IC50 (PBLUC_HILL_SLOPE 13.3, PBLUC_R_SQUARED 0.233, read-out: LUCIFERASE INFECTION ASSAY - IC50): 7.15 µM
10 | CC(C)NS(=O)(=O)c1ccc(NC(=S)NC(=O)C(c2ccccc2)c2ccccc2)cc1 | > 10 |  | IC50 (FFLUC_HILL_SLOPE 1.86, FFLUC_R_SQUARED 0.596, HEPG2TOX_HILL_SLOPE 15.1, HEPG2TOX_R_SQUARED 0.768, PBLUC_HILL_SLOPE 9.02, PBLUC_R_SQUARED 0.275, read-out: LUCIFERASE INFECTION ASSAY - IC50): 8.35 µM
11 | Cc1cc(NCc2cccc(C(F)(F)F)c2)nc(N)n1 | > 10 |  | IC50 (HEPG2TOX_HILL_SLOPE 5.66, HEPG2TOX_R_SQUARED 0.531, PBLUC_HILL_SLOPE 2.77, PBLUC_R_SQUARED 0.624, read-out: LUCIFERASE INFECTION ASSAY - IC50): 5.15 µM
12 | CC(Nc1ccc(Oc2cccc(F)c2)cc1)C(=O)N1CCNC1=O (stereo not given) | 1.08 |  | IC50 (PBLUC_HILL_SLOPE 25, PBLUC_R_SQUARED 0.491, read-out: LUCIFERASE INFECTION ASSAY - IC50): 0.991 µM
13 | O=S(=O)(Nc1cccc(C(F)(F)F)c1)c1c(F)c(Br)cc(F)c1Br | > 6.67 |  | IC50 (PBLUC_HILL_SLOPE 1.15, PBLUC_R_SQUARED 0.311, read-out: LUCIFERASE INFECTION ASSAY - IC50): > 6.67 µM
14 | COc1ccc(CCNC(=O)COC(=O)c2sc(C)nc2C)cc1 | > 10 | > 10 | 
15 | O=C(Nc1ccc(-c2nc3ccccc3[nH]2)cc1)c1cnn(-c2ccccc2)c1C1CC1 | 3.59 | 3.31 | 
16 | Cc1cc(C(=O)OCc2c(Cl)cccc2Cl)c(C)o1 | > 10 | > 10 | 
17 | CC(C)(C)c1ccc(OCC(=O)N2CCC(C(N)=O)CC2)cc1 | > 10.4 | > 10.4 | 
18 | Cc1cc(C)c(-c2csc(NC(=O)Cc3ccccc3)n2)c(C)c1 | 3.56 | 2.81 | 
19 | N#Cc1ccc(C#CCOC(=O)c2ccc(Cl)cc2)cc1 | > 11.2 |  | IC50 (HEPG2TOX_HILL_SLOPE 9.79, HEPG2TOX_R_SQUARED 0.928, PBLUC_HILL_SLOPE 1.7, PBLUC_R_SQUARED 0.764, read-out: LUCIFERASE INFECTION ASSAY - IC50): 3.56 µM
20 | Cc1nnc(S(=O)(=O)CC(=O)N2CCc3ccccc32)n1C | > 10 |  | IC50 (FFLUC_HILL_SLOPE 11.6, FFLUC_R_SQUARED 0.688, read-out: LUCIFERASE INFECTION ASSAY - IC50): > 10 µM
21 | C[C@]12CC[C@H](O)C[C@H]1CCC1C2[C@H](O)C[C@]2(C)[C@@H](C3=CC(=O)OC3)CC[C@]12O (stereo not given in full) | > 8.45 |  | IC50 (HEPG2TOX_HILL_SLOPE 3.83, HEPG2TOX_R_SQUARED 0.791, PBLUC_HILL_SLOPE 2.47, PBLUC_R_SQUARED 0.389, read-out: LUCIFERASE INFECTION ASSAY - IC50): 3.98 µM
22 | Cc1nc(-c2ccc(CCNc3ncnc4sccc34)cc2)cs1 | > 10 |  | IC50 (HEPG2TOX_HILL_SLOPE 0.209, HEPG2TOX_R_SQUARED 0.388, PBLUC_HILL_SLOPE 0.293, PBLUC_R_SQUARED 0.513, read-out: LUCIFERASE INFECTION ASSAY - IC50): 0.0119 µM
23 | CCn1nnc2cc(C(=O)Nc3cccc(Cl)c3N3CCOCC3)ccc21 | > 10 |  | IC50 (HEPG2TOX_HILL_SLOPE 5.65, HEPG2TOX_R_SQUARED 0.159, PBLUC_HILL_SLOPE 1.72, PBLUC_R_SQUARED 0.0547, read-out: LUCIFERASE INFECTION ASSAY - IC50): 5.31 µM

Row | SMILES | IC90 [µM] | IC50 [1] [µM] | other results
24 | CN(C)CCCNc1nc(-c2cccs2)nc2sc3c(c12)CCCC3 | 4.04 |  | IC50 (PBLUC_HILL_SLOPE 12.2, PBLUC_R_SQUARED 0.29, read-out: LUCIFERASE INFECTION ASSAY - IC50): 3.37 µM
25 | Cc1ccc(Nc2nc(C(F)(F)F)nc3ccccc23)cc1S(=O)(=O)N(C)C | > 10 | > 10 | 
26 | Cc1noc(C)c1CSc1ncccc1C(=O)N(C)c1ccc2ccccc2c1 | > 10 | > 10 | 
27 | CC(C)c1nnc(SCC(=O)Nc2ccc([N+](=O)[O-])cc2)[nH]1 | > 10 | > 10 | 
28 | CCn1c2ccccc2c2cc(NC(=O)COC(=O)CC3CCCC3)ccc21 | 9.1 |  | IC50 (PBLUC_HILL_SLOPE 3.89, PBLUC_R_SQUARED 0.506, read-out: LUCIFERASE INFECTION ASSAY - IC50): 5.17 µM
29 | CCOC(=O)c1cnc(-c2ccccn2)nc1O | > 13.5 |  | IC50 (HEPG2TOX_HILL_SLOPE 12.4, HEPG2TOX_R_SQUARED 0.686, PBLUC_HILL_SLOPE 4.24, PBLUC_R_SQUARED 0.376, read-out: LUCIFERASE INFECTION ASSAY - IC50): 8.76 µM
30 | COC(=O)c1cnc(Sc2nnc(C(F)(F)F)n2C)c([N+](=O)[O-])c1 | > 9.08 |  | IC50 (HEPG2TOX_HILL_SLOPE 7.14, HEPG2TOX_R_SQUARED 0.788, read-out: LUCIFERASE INFECTION ASSAY - IC50): > 9.08 µM
31 | Cc1c(-n2c(SCn3nnc4ccccc4c3=O)nc3ccccc3c2=O)c(=O)n(-c2ccccc2)n1C | > 10 |  | IC50 (PBLUC_HILL_SLOPE 10.1, PBLUC_R_SQUARED 0.287, read-out: LUCIFERASE INFECTION ASSAY - IC50): 9.23 µM
32 | O=C(Nc1ccc(F)c(Cl)c1)c1[nH]nc2ccccc12 | > 10 |  | IC50 (FFLUC_HILL_SLOPE 1.67, FFLUC_R_SQUARED 0.554, PBLUC_HILL_SLOPE 0.29, PBLUC_R_SQUARED 0.519, read-out: LUCIFERASE INFECTION ASSAY - IC50): 0.104 µM
33 | O=C1C=CC(=O)N1c1cccc2ccccc12 | > 14.8 | > 14.8 | 
34 | CN1CCN(C(c2ccccn2)c2c(-c3ccccc3)n(O)c3ccccc23)CC1 (stereo not given) | > 10 |  | IC50 (FFLUC_HILL_SLOPE 1.05, FFLUC_R_SQUARED 0.622, read-out: LUCIFERASE INFECTION ASSAY - IC50): > 10 µM
35 | COc1ccc(N2C(=O)c3ccccc3C(C=NNC(=O)c3sc4ccccc4c3Cl)C2=O)cc1OC (stereo not given) | > 10 |  | IC50 (PBLUC_HILL_SLOPE 1.6, PBLUC_R_SQUARED 0.564, read-out: LUCIFERASE INFECTION ASSAY - IC50): 3.85 µM
36 | Cc1ccc(C(CCNCc2ccc(F)cc2)c2ccco2)cc1 (stereo not given) | 0.384 |  | IC50 (HEPG2TOX_HILL_SLOPE 46.4, HEPG2TOX_R_SQUARED 0.442, PBLUC_HILL_SLOPE 99.4, PBLUC_R_SQUARED 0.619, read-out: LUCIFERASE INFECTION ASSAY - IC50): 0.376 µM
37 | CS(=O)(=O)c1sc(NC(=O)Nc2ccc(Cl)cc2)c2c1C=CCC2 | > 8.62 | > 8.62 | 
38 | O=C(Nc1ccc(Cl)c(C(F)(F)F)c1)c1[nH]nc2ccccc12 | > 10 | > 10 | 
39 | Clc1cc2c(c3ncccc13)OCN(Cc1ccco1)C2 | 1.44 |  | IC50 (FFLUC_HILL_SLOPE 3.15, FFLUC_R_SQUARED 0.751, HEPG2TOX_HILL_SLOPE 1.67, HEPG2TOX_R_SQUARED 0.873, PBLUC_HILL_SLOPE 9.79, PBLUC_R_SQUARED 0.762, read-out: LUCIFERASE INFECTION ASSAY - IC50): 1.15 µM
40 | Cc1c2cnn(C)c(=O)c2c(C)n1-c1ccccc1 | > 13 | > 13 | 
41 | Cc1ccc(S(=O)(=O)c2c(C)nn(C(C)(C)C)c2OC(=O)c2cccs2)cc1 | > 10 | > 10 | 
42 | N#CC(C#N)=NNc1cc(Cl)cc(Cl)c1 | 0.565 |  | IC50 (HEPG2TOX_HILL_SLOPE 2.85, HEPG2TOX_R_SQUARED 0.913, PBLUC_HILL_SLOPE 19.7, PBLUC_R_SQUARED 0.581, read-out: LUCIFERASE INFECTION ASSAY - IC50): 0.505 µM
43 | CNC(=O)c1cccc(-c2ccc3ncc(-c4cccc(C(F)(F)F)c4)n3n2)c1 | 2.95 |  | IC50 (HEPG2TOX_HILL_SLOPE 1.58, HEPG2TOX_R_SQUARED 0.903, PBLUC_HILL_SLOPE 3.01, PBLUC_R_SQUARED 0.663, read-out: LUCIFERASE INFECTION ASSAY - IC50): 1.42 µM
44 | CCOc1ccccc1OCC(=O)Nc1nc(-c2cc(C)n(-c3ccc(F)cc3)c2C)cs1 | > 10 | > 10 | 
45 | NS(=O)(=O)c1ccc(CNC(=O)c2ccc(Cn3cccn3)cc2)s1 | > 10 |  | IC50 (HEPG2TOX_HILL_SLOPE 0.983, HEPG2TOX_R_SQUARED 0.0206, read-out: LUCIFERASE INFECTION ASSAY - IC50): > 10 µM

— ChEMBL document CHEMBL4483862, “Open-source discovery of chemical leads for next-generation chemoprotective antimalarials” (2018)
